From the NIST ThermoML archive (doi:10.1016/j.jct.2008.09.018)

Columns and labels:
[1] = Liquid; for mass density: Vibrating tube method; for speed of sound: Pulse-echo method; for viscosity: Capillary tube (Ostwald / Ubbelohde) method
[2] = refractive index (Na D-line) (dimensionless); details: 298.15 K; 101.33 kPa; Liquid; Standard Abbe refractometry
[3] = xn = mol fraction of the nth substance listed; details: 101 kPa, Liquid, x1 = 1; for speed of sound: Pulse-echo method; for viscosity: Capillary tube (Ostwald / Ubbelohde) method; for mass density: Vibrating tube method

OCCO [1,2-ethanediol]
[1]
Details	mass density [kg/m3]	speed of sound [m/s]	viscosity [mPa·s]
283.15 K, 101.33 kPa	1120.32	–	–
285.64 K, 101.33 kPa	1118.6	–	–
290.64 K, 101.33 kPa	1115.12	–	–
293.14 K, 101.33 kPa	1113.37	–	–
293.15 K, 101 kPa	–	1666.7	–
295.64 K, 101.33 kPa	1111.62	–	–
298.15 K, 101.33 kPa	–	1654.9	16.95
300.65 K, 101.33 kPa	1108.12	–	–
303.15 K, 101 kPa	1106.46	1643.1	13.83
303.15 K, 101.33 kPa	1106.37	–	–
305.64 K, 101.33 kPa	1104.61	–	–
308.15 K, 101 kPa	–	1631.2	11.44
310.65 K, 101.33 kPa	1101.07	–	–
313.14 K, 101.33 kPa	1099.3	–	–
313.15 K, 101 kPa	1099.23	1619.3	9.565
315.65 K, 101.33 kPa	1097.52	–	–
320.64 K, 101.33 kPa	1093.95	–	–
323.15 K, 101.33 kPa	1092.15	–	–

Details	refractive index
[2]	1.4307

OCCO [1,2-ethanediol] + CCCCCCCCCO
[3]
Details	mass density [kg/m3]	speed of sound [m/s]	viscosity [mPa·s]
293.15 K	–	1666.7	–
298.15 K	–	1654.9	16.95
303.15 K	1106.46	1643.1	13.83
308.15 K	–	1631.2	11.44
313.15 K	1099.23	1619.3	9.565

CCCCCCCCCO [nonan-1-ol]
[1]
Details	mass density [kg/m3]	speed of sound [m/s]	viscosity [mPa·s]
283.15 K, 101.33 kPa	834.614	–	–
285.64 K, 101.33 kPa	832.923	–	–
288.15 K, 101.33 kPa	831.224	–	–
290.65 K, 101.33 kPa	829.521	–	–
293.14 K, 101.33 kPa	827.816	–	–
293.15 K, 101 kPa	–	1381.6	–
295.64 K, 101.33 kPa	826.106	–	–
298.14 K, 101.33 kPa	824.391	–	–
298.15 K, 101.33 kPa	824.48	1364.4	9.494
300.65 K, 101.33 kPa	822.671	–	–
303.14 K, 101.33 kPa	820.949	–	–
303.15 K, 101 kPa	821.05	1347.4	7.994
305.64 K, 101.33 kPa	819.22	–	–
308.14 K, 101.33 kPa	817.486	–	–
308.15 K, 101 kPa	817.57	1330.5	6.713
310.64 K, 101.33 kPa	815.748	–	–
313.15 K, 101 kPa	814.19	1313.6	5.657
313.15 K, 101.33 kPa	814.001	–	–
315.65 K, 101.33 kPa	812.251	–	–
318.15 K, 101.33 kPa	810.496	–	–
320.65 K, 101.33 kPa	808.73	–	–
323.15 K, 101.33 kPa	806.96	–	–

Details	refractive index
[2]	1.4323
